What was measured:
[1] = test system: γ-globin mRNA; test: γ-globin mRNA by RT-PCR in erythroid colonies cultured from cord blood; format: cell-based, human; settings: for Concentration required: increase in fetal globin mRNA, erythroid colonies from cord blood; for No. of Positive responses: positive cultures/cultures tested; for fetal globin induction: 3 cultures
Experimental: γ-globin mRNA was analyzed in control and treated erythroid colonies cultured from cord blood, by RT-PCR.

[2] = test system: cells expressing fetal globin (F-cells); test: Experiment 1: proportion of F-cells in hematopoietic colonies by FACScan; format: cell-based, human; settings: same low concentrations as for fetal globin mRNA induction
Experimental: (§1) Erythroid burst-forming units (BFU-E) (erythroid progenitors) and colony-forming units granulocyte-macrophage (CFU-GM) (myeloid colonies) were cultured in semi-solid or in two-phase suspension media, with or without hematopoietic growth factors at high levels (e.g., erythropoietin at 3 U/ml) or reduced levels (BFU-E cell proliferation was evaluated by enumeration in colonies developing in the presence of reduced amounts of erythropoietin (0.5 U/ml) rather than 3 U (or 3000 mU)/ml, which is standard for these experimental systems), from cord blood or the peripheral blood of several types of humans. Experiments were carried out on samples derived from 1) β-thalassemia patients who expressed variable levels of fetal globin at baseline (and in untreated control cultures) and represent a variety of potential individual responses, 2) from normal umbilical cord blood samples, which express 40-50% fetal globin at baseline (and in untreated control cultures), 3) from CD34+ cells isolated from normal adult peripheral blood, which expressed low levels of fetal globin in untreated control cultures and at baseline; and 4) from peripheral blood of patients with sickle cell disease who were receiving treatment with hydroxyurea. These biological samples provide a range of potential difficulty in stimulating fetal globin expression in human patients.
Hematopoietic colonies were enumerated with or without (+/−) the test compounds, and compared to colonies which developed in the presence of hematopoietic growth factors alone from the same subject (untreated control colonies), and proportions of cells expressing fetal globin (F-cells) were analyzed by FACScan analysis.

[3] = test system: Erythroid colonies (BFU-E); test: Experiment 2: erythroid colonies (BFU-E) cultured from patients with beta thalassemia; format: cell-based, human; settings: optimal panel of growth factors
Experimental: as §1
Erythroid colonies were cultured from patients with beta thalassemia, either without any test compounds (Control), only an optimal panel of hematopoietic growth factors, or with one of the test compounds M, P, T, 2-methyl-1-benzofuran-4-carboxylic acid, V, W, X, Y, AK, AC, or AI. […] Colony numbers were increased above the control cultures (% BFU-E/Control) by anywhere from 25% to 230%. Each of the listed test compounds was tested in at least 5 different patients' blood and the differences were statistically significant.

[4] = test system: BFU-E; test: BFU-E cultured from cord blood; format: cell-based, human
Experimental: as §1
In a related study, BFU-E cultured from cord blood, was tested with or without compound M, P, R, T, W, Y, Z, AI, F, or 3-(5-chlorothien-3-yl)acrylic acid.

[5] = test system: γ globin promoter; test: β/γ-globin promoter driven reporter gene assay; format: cell-based; settings: Table 2
[6] = test system: myeloid colonies; test: Experiment 3: myeloid colonies in cord blood cultured without added growth factors; format: cell-based, human; settings: no added growth factors
Experimental: as §1
Control colonies were established in cultures with no added growth factors to support myelopoiesis, in Iscove's Modified Dulbecco's Media (IMDM) methylcellulose media with charcoal-absorbed fetal bovine serum, beta mercaptoethanol, BSA.

[7] = test system: fetal globin mRNA; test: Fetal globin induction in phlebotomized anemic baboons; format: in vivo, baboon; settings: Baboon 5002, 50 mg/kg
Experimental: Juvenile baboons were catheterized with venous and arterial catheters, and were phlebotomized a set amount of blood daily to maintain anemia with a hemoglobin level of 7.0-7.5 g/dl, from a baseline normal hemoglobin level of (12-13 g/dl). Normal saline was infused to replace the amount of blood withdrawn. This degree of phlebotomy exchanges the blood volume every 10-20 days.
Fetal globin mRNA was analyzed at baseline anemia before and following administration of test compounds. Globin chain protein synthesis confirmed the mRNA findings.
Following establishment of the stable level of anemia, a test compound was administered once/day, either intravenously or orally, and blood was withdrawn through the arterial catheter for analysis of globin mRNA or for analysis of the test compound in the plasma by HPLC-MS. Pharmacokinetic profiles were established from the plasma levels and oral bioavailability (comparing area under the curve between IV and oral plasma levels) was determined for the test compounds.
In anemic Baboon 5002, baseline fetal globin mRNA, assayed by RNAse protection, was 26% of non-alpha globin. With treatment with compound Y at 5 mg/kg/dose, fetal globin mRNA increased to 48% of non-alpha globin, an 85% increase over the baseline level. Treatment with compound AK at 50 mg/kg induced a 51% fetal globin mRNA increase, a 96% increase over the baseline level. […] The human equivalent dose is 20% of these doses, or 1 mg/kg, 10 mg/kg, or 8 mg/kg respectively. Thus, these 3 compounds are highly suitable for pharmaceutical compositions at doses that human patients can readily tolerate.

[8] = test system: γ-globin gene reporter; test: Related study: relative luciferase reporter gene induction; format: cell-based
Experimental: (§2) In a related study, the relative luciferase reporter gene induction, γ-globin gene induction, and F cell production was tested for several of the candidate compounds. The relative in vitro γ-globin gene reporter stimulation for the tested compounds was as follows: compound P>M>W=R=Y. The relative in vitro γ-globin gene induction for the tested compounds was as follows: P>R=M>Y>W>. The relative in vitro F-cell production was as follows: W>Y>R>M>P. The relative potency for F-cell production was as follows: R>M>Y>P>W.

[9] = test system: γ-globin gene; test: Related study: relative in vitro γ-globin gene induction; format: cell-based
Experimental: as §2

[10] = test system: F-cell; test: Related study: in vitro F cell production; format: cell-based
Experimental: as §2

[11] = test system: Erythroid colonies; test: Example 7: erythroid colonies cultured with low Erythropoietin (0.5 U/ml) and compound Y enantiomers; format: cell-based, human
Experimental: The proliferative activity of compound Y—S enantiomer was tested in vitro in erythroid colonies cultured from peripheral blood of 3 sources of individuals: sickle cell anemia patients who were taking Hydroxyurea and have suppression of their endogenous erythropoiesis, a normal adult subject, and two cord blood samples. The erythroid cultures were established with low concentrations of Erythropoietin (0.5 U/ml) alone and with one or the other enantiomer of compound Y or the racemic mixture, or with high concentrations of EPO (3 Units/ml, =3000 mU/ml, 100-fold the normal physiologic concentration).

## Cc1cc2c(C(=O)O)cccc2o1 [2-methyl-1-benzofuran-4-carboxylic acid]
[1]
  Concentration required: 5 µM
  No. of Positive responses: 6/6
[2]
  proportion of F-cells above the percentage in untreated controls: significant increases
[3]
  number of erythroid colonies compared to matched control cultures: increased the number of colonies

## O=C(O)C=Cc1csc(Cl)c1 [3-(5-chlorothien-3-yl)acrylic acid]
[1]
  Concentration required: 30 µM
[2]
  proportion of F-cells above the percentage in untreated controls: significant increases
[4]
  numbers of BFU-E colonies compared to controls: increased numbers of colonies

## O=C(O)Cn1ccc(=O)cc1 [AA]
[5]
  % γ globin promoter induction (above untreated control): ** (‘**’ indicates a 100%-200% increase)

## O=C(O)C1CCc2snnc2C1 (stereo not drawn) [AB]
[5]
  % γ globin promoter induction (above untreated control): ** (‘**’ indicates a 100%-200% increase)

## O=C(O)Cn1cc(Cl)c([N+](=O)[O-])n1 [AC]
[5]
  % γ globin promoter induction (above untreated control): ** (‘**’ indicates a 100%-200% increase)
[3]
  number of erythroid colonies compared to matched control cultures: increased the number of colonies

## Cn1cnnc1SCC(=O)O [AD]
[5]
  % γ globin promoter induction (above untreated control): ** (‘**’ indicates a 100%-200% increase)

## O=C(O)CSc1nnc(S)s1 [AE]
[5]
  % γ globin promoter induction (above untreated control): ** (‘**’ indicates a 100%-200% increase)

## O=C(CC1(C(=O)O)CCCCC1)c1cccs1 [AF]
[5]
  % γ globin promoter induction (above untreated control): * (‘*’ indicates a 80-100% increase)

## O=C1CC(C(=O)O)Cc2ccsc21 (stereo not drawn) [AG]
[5]
  % γ globin promoter induction (above untreated control): ** (‘**’ indicates a 100%-200% increase)

## Cc1cc(SCC(=O)O)cs1 [AH]
[5]
  % γ globin promoter induction (above untreated control): ** (‘**’ indicates a 100%-200% increase)

## CCOc1ccc(C(=O)O)cc1 [AI]
[5]
  % γ globin promoter induction (above untreated control): ** (‘**’ indicates a 100%-200% increase)
[3]
  number of erythroid colonies compared to matched control cultures: increased the number of colonies
[4]
  numbers of BFU-E colonies compared to controls: increased numbers of colonies
[6]
  production of myeloid colonies compared to untreated control: stimulated production of myeloid colonies

## O=C(O)CCC1(c2ccc(Cl)s2)CCCCC1 [AJ]
[5]
  % γ globin promoter induction (above untreated control): ** (‘**’ indicates a 100%-200% increase)

## O=[N+]([O-])c1cc(S(=O)(=O)O)ccc1F [AK]
[5]
  % γ globin promoter induction (above untreated control): ** (‘**’ indicates a 100%-200% increase)
[3]
  number of erythroid colonies compared to matched control cultures: increased the number of colonies
[7]
  increase over the baseline level of fetal globin mRNA: 96%
[7]; baseline 26%
  fetal globin mRNA (% of non-alpha globin): 51%

## O=C(O)/C=C/c1ccnc2ccccc12 [F]
[5]
  % γ globin promoter induction (above untreated control): *** (‘***’ indicates an over 200% increase of γ globin promoter induction over untreated controls)
[2]
  proportion of F-cells above the percentage in untreated controls: significant increases
[4]
  numbers of BFU-E colonies compared to controls: increased numbers of colonies

## O=C(O)CN1C(=O)S/C(=C/c2ccccc2O)C1=O [K]
[5]
  % γ globin promoter induction (above untreated control): * (‘*’ indicates a 80-100% increase)

## O=C(O)CNc1ccc(SC(F)(F)F)cc1 [N]
[5]
  % γ globin promoter induction (above untreated control): *** (‘***’ indicates an over 200% increase of γ globin promoter induction over untreated controls)
[2]
  proportion of F-cells above the percentage in untreated controls: significant increases

## COc1cc(OC)cc(Oc2ccccc2C(=O)O)c1 [O]
[5]
  % γ globin promoter induction (above untreated control): * (‘*’ indicates a 80-100% increase)

## COc1cc(OC)cc(SC(C(=O)O)C(C)C)c1 (stereo not drawn) [Q]
[5]
  % γ globin promoter induction (above untreated control): ** (‘**’ indicates a 100%-200% increase)

## COc1ccc(C(N)CC(=O)O)cc1OC (stereo not drawn) [R]
[5]
  % γ globin promoter induction (above untreated control): *** (‘***’ indicates an over 200% increase of γ globin promoter induction over untreated controls)
[8]
  relative in vitro γ-globin gene reporter stimulation (rank order): P>M>W=R=Y
[9]
  relative in vitro γ-globin gene induction (rank order): P>R=M>Y>W
[10]
  relative in vitro F-cell production (rank order): W>Y>R>M>P
  relative potency for F-cell production (rank order): R>M>Y>P>W
[2]
  proportion of F-cells above the percentage in untreated controls: significant increases
[4]
  numbers of BFU-E colonies compared to controls: increased numbers of colonies

## O=C(O)Cc1[nH]c(=O)cc(O)c1C(=O)O [S]
[5]
  % γ globin promoter induction (above untreated control): ** (‘**’ indicates a 100%-200% increase)

## O=C1CSc2ccc(C(=O)O)cc2N1 [T]
[5]
  % γ globin promoter induction (above untreated control): ** (‘**’ indicates a 100%-200% increase)
[2]
  proportion of F-cells above the percentage in untreated controls: significant increases
[3]
  number of erythroid colonies compared to matched control cultures: increased the number of colonies
[4]
  numbers of BFU-E colonies compared to controls: increased numbers of colonies

## COc1cccc(SCC(=O)O)c1 [V]
[5]
  % γ globin promoter induction (above untreated control): ** (‘**’ indicates a 100%-200% increase)
[1]
  Concentration required: 5 µM
  No. of Positive responses: 6/6
[2]
  proportion of F-cells above the percentage in untreated controls: significant increases
[3]
  number of erythroid colonies compared to matched control cultures: increased the number of colonies

## O=C(O)c1ccc(-c2ccccc2[N+](=O)[O-])o1 [X]
[5]
  % γ globin promoter induction (above untreated control): ** (‘**’ indicates a 100%-200% increase)
[2]
  proportion of F-cells above the percentage in untreated controls: significant increases
[3]
  number of erythroid colonies compared to matched control cultures: increased the number of colonies
[6]
  production of myeloid colonies compared to untreated control: stimulated production of myeloid colonies

## COc1cc(OC)nc(S[C@@H](C(=O)O)C(C)C)n1 [Y + R]
[1]
  fetal globin induction: demonstrated fetal globin inducing action
  Concentration required: 5 µM
  No. of Positive responses: 2/3
[11]
  erythroid cell proliferation: does not stimulate cell proliferation

## COc1cc(OC)nc(S[C@H](C(=O)O)C(C)C)n1 [Y − S]
[1]
  fetal globin induction: did not induce fetal globin in 2 of (the same) 3 cultures
  Concentration required: 5 µM
  No. of Positive responses: 1/3
[11]
  erythroid cell proliferation: stimulates erythroid cell proliferation significantly
[11]; low EPO 0.5 U/ml
  range of more erythroid colonies than in the racemic mixture: 38-50%
[11]; low EPO 0.5 U/ml, same concentration
  mean more erythroid colonies than in the racemic mixture: 45%

## O=C(O)c1cccc(Cn2cc(Cl)cn2)c1 [Z]
[5]
  % γ globin promoter induction (above untreated control): ** (‘**’ indicates a 100%-200% increase)
[2]
  proportion of F-cells above the percentage in untreated controls: significant increases
[4]
  numbers of BFU-E colonies compared to controls: increased numbers of colonies

## EPO: Erythropoietin, high concentration 3 Units/ml in erythroid cultures
[11]; high EPO 3 Units/ml
  mean more colonies than cultures with racemic mix or R enantiomer in low EPO: 35%
  range of more colonies than cultures with racemic mix or R enantiomer in low EPO: 25-45%

From patent US9095565B2, “Methods for treating blood disorders” (Phoenicia Biosciences, Inc., priority 2006, dated 2015)
